The target of this assay is T1, ANO1 (Homo sapiens, UniProt Q5XXA6).
T1 sequence (Q5XXA6 1-986): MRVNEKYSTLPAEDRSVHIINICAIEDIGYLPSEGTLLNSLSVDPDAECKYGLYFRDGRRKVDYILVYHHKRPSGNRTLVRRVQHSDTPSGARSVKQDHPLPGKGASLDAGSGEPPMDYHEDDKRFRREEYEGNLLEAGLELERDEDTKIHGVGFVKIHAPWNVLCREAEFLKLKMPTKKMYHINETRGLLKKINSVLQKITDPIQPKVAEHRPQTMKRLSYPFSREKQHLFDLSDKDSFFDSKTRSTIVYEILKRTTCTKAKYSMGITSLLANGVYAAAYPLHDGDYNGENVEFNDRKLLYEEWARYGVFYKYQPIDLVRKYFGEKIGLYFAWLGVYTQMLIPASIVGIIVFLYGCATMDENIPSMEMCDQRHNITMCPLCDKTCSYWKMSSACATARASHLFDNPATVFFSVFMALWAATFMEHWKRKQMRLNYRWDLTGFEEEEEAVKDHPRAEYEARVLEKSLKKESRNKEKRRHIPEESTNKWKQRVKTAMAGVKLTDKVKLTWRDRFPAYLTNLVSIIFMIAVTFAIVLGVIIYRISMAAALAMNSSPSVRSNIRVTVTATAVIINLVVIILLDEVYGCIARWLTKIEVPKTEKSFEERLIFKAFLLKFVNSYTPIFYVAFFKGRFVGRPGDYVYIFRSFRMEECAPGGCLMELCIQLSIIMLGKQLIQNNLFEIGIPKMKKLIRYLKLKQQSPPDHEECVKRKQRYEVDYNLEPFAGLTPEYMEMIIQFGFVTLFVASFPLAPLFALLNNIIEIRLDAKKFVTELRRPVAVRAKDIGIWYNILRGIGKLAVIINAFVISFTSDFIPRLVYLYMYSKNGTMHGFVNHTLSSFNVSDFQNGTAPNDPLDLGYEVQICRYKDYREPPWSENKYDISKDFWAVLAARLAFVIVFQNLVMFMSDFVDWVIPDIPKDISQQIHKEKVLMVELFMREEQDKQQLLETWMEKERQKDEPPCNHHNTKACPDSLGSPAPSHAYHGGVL
Briefly: YFP fluorescence quenching in FRT cells expressing human ANO1; also Ussing chamber and whole-cell patch clamp in HEK293T. It is filed as cell-based. In general terms: In patch-clamp work, channel activity is measured electrically.

The results in this text go back to PMC9862168, “Inhibition of ANO1 by Cis- and Trans-Resveratrol and Their Anticancer Activity in Human Prostate Cancer PC-3 Cells” (International Journal of Molecular Sciences, 2023).

As a reminder, the IC50 is the concentration that gives 50% inhibition. A lower IC50 goes with higher potency. In turn, `Oc1ccc(/C=C\c2cc(O)cc(O)c2)cc1` [cis-resveratrol] showed an IC50 of 10.6 µM. For `Oc1ccc(/C=C/c2cc(O)cc(O)c2)cc1` [trans-resveratrol] the value was 102 µM.
